Test [1] deals with Calvarial osteoblast. In words: Antiosteoporotic activity in mouse calvarial osteoblasts assessed as enhancement in ALP activity at 1 pM to 1 uM after 48 hrs by PNPP substrate-based spectrophotometric method relative to control. The class given is functional, cell-based.
For test [2], the system named is Calvarial osteoblast. In words: Antiosteoporotic activity in mouse calvarial osteoblasts assessed as upregulation of BMP-2 mRNA levels at 1 pM measured at 24 hrs by real-time quantitative PCR method relative to control. The class given is functional.
Test [3] concerns Calvarial osteoblast. In words: Antiosteoporotic activity in mouse calvarial osteoblasts assessed as enhancement in ALP activity at 1 nM to 1 uM after 48 hrs by PNPP substrate-based spectrophotometric method relative to control. It is filed as functional, cell-based.
Test [4] deals with Calvarial osteoblast. The test is described as follows: Antiosteoporotic activity in mouse calvarial osteoblasts assessed as upregulation of OCN mRNA levels at 1 pM measured at 24 hrs by real-time quantitative PCR method relative to control. It is filed as functional.
Test [5] relates to Calvarial osteoblast. The test is described as follows: Antiosteoporotic activity in mouse calvarial osteoblasts assessed as upregulation of Runx-2 mRNA levels at 1 pM measured at 24 hrs by real-time quantitative PCR method relative to control. The class given is functional.
Test [6] relates to Calvarial osteoblast. In words: Antiosteoporotic activity in mouse calvarial osteoblasts assessed as increase in mineral nodule formation at 1 to 100 pM after 21 days by alizarin red-S dye-based optical densitometry relative to control. The class given is functional, cell-based.
The test system of test [7] is Calvarial osteoblast. In words: Antiosteoporotic activity in mouse calvarial osteoblasts assessed as enhancement in ALP activity at 100 pM after 48 hrs by PNPP substrate-based spectrophotometric method relative to control. It is filed as functional.
In test [8] the test system is Calvarial osteoblast. The test is described as follows: Antiosteoporotic activity in mouse calvarial osteoblasts assessed as enhancement in ALP activity at 1 pM after 48 hrs by PNPP substrate-based spectrophotometric method relative to control. The class given is functional.

Structures are written as SMILES. Active and inactive are the calls of the source. The calls are words filed in the database; no cut-off is given here.

For the compound `CC(=O)O[C@H]1CC[C@@]2(C)C(=CC[C@H]3[C@@H]4CC[C@H](C(C)=O)[C@@]4(C)CC[C@@H]32)C1`, the result in test [1] was Active.
As to `C[C@]12CC[C@H]3[C@@H](CC=C4C[C@@H](O)CC[C@@]43C)[C@@H]1CC[C@@H]2c1ccc2ccccc2n1`, the “fold change (FC)” value turned out to be 2 in test [2], 3 in test [4] and 1.5 in test [5]. The outcome in test [3] and in test [6] was Active. Further, the values for the Activity in test [7] and in test [8] were 85% and 100%, respectively.
`C/C(=N\O)[C@H]1CC[C@H]2[C@@H]3CC=C4C[C@@H](O)CC[C@]4(C)[C@H]3CC[C@]12C`: the result in test [1] was Active.
With `C[C@]12CC[C@H]3[C@@H](CC=C4C[C@@H](O)CC[C@@]43C)[C@@H]1CC[C@@H]2c1ccc2cc(Br)cc(Br)c2n1`, the outcome in test [1] was Active.
